# Laboratory results: the supplement of paper PMC6045584
# ± gives the standard deviation of the averaged measurements.
# How the values were obtained:
# [1] = compound: CCN(CC)CCNC(=O)c1c(C)[nH]c(/C=C2\C(=O)Nc3ccc(F)cc32)c1C [SUNITINIB]; assay: surviving fraction relative to DMSO-only wells; higher = less growth inhibition; settings: exposure time: 5 days
# Outline: (§1)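 For each tumour cell line, log-phase cells were put into 384-well plates at 250–500 cells per well, then after 24 hours exposed continuously for five days to inhibitors at 0.5, 1, 5, 10, 50, 100, 500 and 1000 nM. Viability was assessed by CellTiter-Glo luminescence, with surviving fraction expressed relative to the median of DMSO-only wells. Lines were screened three times and retained only if replicate Pearson r exceeded 0.7 and median Z' exceeded 0.3.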
# [2] = compound: NC1(c2ccc(-c3nc4ccn5c(=O)[nH]nc5c4cc3-c3ccccc3)cc2)CCC1 [MK2206]; assay: as above; settings: exposure time: 5 days
# Outline: as §1
Test System,surviving fraction ([1]; 0.5 nM),surviving fraction ([1]; 10 nM),surviving fraction ([1]; 50 nM),surviving fraction ([1]; 500 nM),surviving fraction ([1]; 1000 nM),surviving fraction ([2]; 0.5 nM),surviving fraction ([2]; 1 nM),surviving fraction ([2]; 5 nM),surviving fraction ([2]; 10 nM),surviving fraction ([2]; 50 nM),surviving fraction ([2]; 100 nM),surviving fraction ([2]; 500 nM),surviving fraction ([2]; 1000 nM),surviving fraction ([1]; 100 nM),surviving fraction ([1]; 1 nM),surviving fraction ([1]; 5 nM)
MDAMB453 BREAST,0.982 ± 0.0066,1.03 ± 0.026,1.022 ± 0.005,0.986 ± 0.059,0.724 ± 0.047,1.1 ± 0.093,1.08 ± 0.039,1.11 ± 0.041,1.15 ± 0.035,1.12 ± 0.072,0.846 ± 0.013,0.327 ± 0.054,0.266 ± 0.019,–,–,–
MDAMB468 BREAST,0.8 ± 0.046,0.927 ± 0.072,1.1 ± 0.091,–,–,1.07 ± 0.052,1.1 ± 0.076,1.1 ± 0.067,1.09 ± 0.052,0.966 ± 0.06,0.939 ± 0.073,0.666 ± 0.0078,0.595 ± 0.014,1.04 ± 0.084,–,–
MFM223 BREAST,0.75 ± 0.033,0.707 ± 0.041,1.01 ± 0.11,0.398 ± 0.013,0.247 ± 0.015,1.14 ± 0.047,1.12 ± 0.014,1.06 ± 0.038,1.14 ± 0.16,0.793 ± 0.077,0.661 ± 0.087,0.314 ± 0.053,0.224 ± 0.011,0.832 ± 0.058,0.758 ± 0.032,0.7412 ± 0.002
MG63 BONE,0.872 ± 0.02,–,0.877 ± 0.028,0.721 ± 0.025,0.637 ± 0.014,0.987 ± 0.01,1.06 ± 0.049,1.04 ± 0.03,1.09 ± 0.047,0.95 ± 0.016,0.961 ± 0.03,0.793 ± 0.019,0.748 ± 0.017,0.854 ± 0.016,0.865 ± 0.034,0.876 ± 0.015
MHM BONE,0.956 ± 0.038,–,–,0.881 ± 0.021,0.774 ± 0.021,0.981 ± 0.021,0.9797 ± 0.0065,1.01 ± 0.024,1.05 ± 0.027,0.963 ± 0.035,0.959 ± 0.026,0.89 ± 0.04,0.8973 ± 0.0085,–,0.962 ± 0.021,0.9887 ± 0.0061
NCIH441 LUNG,0.963 ± 0.039,0.952 ± 0.029,1.02 ± 0.043,–,0.764 ± 0.079,1.08 ± 0.034,1.18 ± 0.017,1.11 ± 0.034,1.08 ± 0.11,1.01 ± 0.059,1.07 ± 0.041,1.04 ± 0.073,0.994 ± 0.028,0.977 ± 0.079,–,–
NOS1 BONE,0.762 ± 0.05,0.645 ± 0.039,0.561 ± 0.029,0.167 ± 0.012,0.113 ± 0.03,0.882 ± 0.11,0.883 ± 0.088,1.01 ± 0.1,1.04 ± 0.11,0.807 ± 0.14,0.734 ± 0.011,0.503 ± 0.038,0.454 ± 0.053,0.391 ± 0.027,–,–
NY BONE,0.904 ± 0.016,0.918 ± 0.04,0.937 ± 0.01,0.696 ± 0.023,0.481 ± 0.036,1.03 ± 0.035,1.06 ± 0.024,1.05 ± 0.012,1.05 ± 0.033,0.96 ± 0.047,0.954 ± 0.023,0.882 ± 0.014,0.853 ± 0.017,0.929 ± 0.019,0.855 ± 0.023,–
OS25HAL BONE,0.886 ± 0.014,0.871 ± 0.053,0.926 ± 0.038,0.767 ± 0.07,0.431 ± 0.04,0.998 ± 0.042,1.07 ± 0.028,1.07 ± 0.024,1.02 ± 0.026,0.813 ± 0.066,0.631 ± 0.085,0.301 ± 0.035,0.278 ± 0.021,0.925 ± 0.02,–,–
OSHN BONE,0.9083 ± 0.0045,0.8813 ± 0.0055,–,0.86 ± 0.019,0.42 ± 0.026,1.08 ± 0.018,1.12 ± 0.034,1.08 ± 0.021,1.12 ± 0.052,1.05 ± 0.046,1.09 ± 0.038,1.04 ± 0.051,1.09 ± 0.086,0.962 ± 0.017,0.906 ± 0.0096,–
